Experimental data: PubChem BioAssay AID342 (DTP/NCI, 2004)
“And” between values parts separate entries of the source, which are not always exact repeats. Equal entries are not always repeated.

System: Swiss mice, Sarcoma 180 sc, mean tumor weight T/C
Experiment: NCI In Vivo Anticancer Drug Screen. Data for tumor model Sarcoma 180 (subcutaneous) in Swiss mice
Conditions: endpoint: mean tumor weight, higher = larger tumour
Method in brief: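 Readout is the ratio of treated-group measurement to vehicle-control measurement (T/C), based on survival or tumor size in mice carrying transplanted tumors.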

[1] = dose: 50.0 mg/kg/injection, schedule: Q01DX007 (ip), vehicle: carboxymethylcellulose (CMC)
[2] = dose: 75.0 mg/kg/injection, schedule: Q01DX007 (ip), vehicle: carboxymethylcellulose (CMC)
[3] = dose: 80.0 mg/kg/injection, schedule: Q01DX007 (ip), vehicle: carboxymethylcellulose (CMC)
[4] = dose: 25.0 mg/kg/injection, schedule: Q01DX007 (ip), vehicle: carboxymethylcellulose (CMC)
[5] = dose: 100.0 mg/kg/injection, schedule: Q01DX007 (ip), vehicle: carboxymethylcellulose (CMC)
[6] = dose: 125.0 mg/kg/injection, schedule: Q01DX007 (ip), vehicle: carboxymethylcellulose (CMC)

`Cn1c(=O)c2[nH]cnc2n(C)c1=O` was tested, and the T/C (dose: 20.43 mg/kg/injection, schedule: Q01DX007 (ip), vehicle: carboxymethylcellulose (CMC)) was 75 % of control, the T/C (dose: 40.87 mg/kg/injection, schedule: Q01DX007 (ip), vehicle: carboxymethylcellulose (CMC)) was 103 % of control and the T/C (dose: 81.75 mg/kg/injection, schedule: Q01DX007 (ip), vehicle: carboxymethylcellulose (CMC)) was 70 % of control. The T/C (dose: 163.5 mg/kg/injection, schedule: Q01DX007 (ip), vehicle: carboxymethylcellulose (CMC)) was 113 % of control.
In the case of `CCCCN(C)N=Nc1ccc(C(N)=O)cc1`, the T/C [1] is reported as 67 % of control and the T/C [2] is reported as 32 % of control.
With `C[C@@H]1C[C@H]2[C@@H]3CCC4=CC(=O)C=C[C@]4(C)[C@@]3(F)[C@@H](O)C[C@]2(C)[C@@]1(O)C(=O)CO` the T/C (dose: 7.0 mg/kg/injection, schedule: Q01DX007 (sc), vehicle: steriod suspending solution) was 50 % of control and 56 % of control, the T/C (dose: 11.0 mg/kg/injection, schedule: Q01DX007 (sc), vehicle: steriod suspending solution) was 38 % of control and 39 % of control and the T/C (dose: 16.0 mg/kg/injection, schedule: Q01DX007 (sc), vehicle: steriod suspending solution) was 35 % of control and 36 % of control and 47 % of control. The T/C (dose: 24.0 mg/kg/injection, schedule: Q01DX007 (sc), vehicle: steriod suspending solution) was 30 % of control and 35 % of control and 40 % of control.
In the case of `COC(=O)[C@@H]1c2cc3c(c(O)c2[C@@H](OC2OC(C)C(OC)C(C)(OC)C2OC)C[C@]1(C)O)C(=O)c1c(O)cc2c(c1C3=O)O[C@H]1O[C@]2(C)[C@H](O)[C@@H](N(C)C)[C@@H]1O` (stereo not given in full), the T/C (dose: 0.2 mg/kg/injection, schedule: Q01DX007 (ip), vehicle: saline) is reported as 77 % of control, the T/C (dose: 0.3 mg/kg/injection, schedule: Q01DX007 (ip), vehicle: saline) is reported as 81 % of control and the T/C (dose: 0.44 mg/kg/injection, schedule: Q01DX007 (ip), vehicle: saline) is reported as 60 % of control. For the same compound, the T/C (dose: 0.67 mg/kg/injection, schedule: Q01DX007 (ip), vehicle: saline) was 57 % of control and the T/C (dose: 1.0 mg/kg/injection, schedule: Q01DX007 (ip), vehicle: saline) was 50 % of control.
In the case of `O=c1[nH]c(=O)n(C2CC(O)C(CO)O2)cc1F` (stereo not given), the T/C (dose: 2.0 mg/kg/injection, schedule: Q01DX007 (ip), vehicle: carboxymethylcellulose (CMC)) is reported as 97 % of control, the T/C (dose: 4.0 mg/kg/injection, schedule: Q01DX007 (ip), vehicle: carboxymethylcellulose (CMC)) is reported as 108 % of control and the T/C (dose: 8.0 mg/kg/injection, schedule: Q01DX007 (ip), vehicle: carboxymethylcellulose (CMC)) is reported as 97 % of control. The T/C (dose: 10.0 mg/kg/injection, schedule: Q#A X014 (ip), vehicle: carboxymethylcellulose (CMC)) was 27 % of control, the T/C (dose: 12.5 mg/kg/injection, schedule: Q#A X014 (ip), vehicle: carboxymethylcellulose (CMC)) was 28 % of control and the T/C (dose: 16.0 mg/kg/injection, schedule: Q01DX007 (ip), vehicle: carboxymethylcellulose (CMC)) was 94 % of control. For the same compound, the T/C (dose: 20.0 mg/kg/injection, schedule: Q01DX007 (ip), vehicle: saline) was 119 % of control, the T/C (dose: 20.0 mg/kg/injection, schedule: Q#A X014 (ip), vehicle: carboxymethylcellulose (CMC)) was 14 % of control and the T/C (dose: 25.0 mg/kg/injection, schedule: Q#A X014 (ip), vehicle: carboxymethylcellulose (CMC)) was 10 % of control. The T/C (dose: 40.0 mg/kg/injection, schedule: Q01DX007 (ip), vehicle: saline) was 86 % of control, the T/C (dose: 40.0 mg/kg/injection, schedule: Q#A X014 (ip), vehicle: carboxymethylcellulose (CMC)) was 4 % of control and the T/C [3] was 29 % of control. The T/C (dose: 80.0 mg/kg/injection, schedule: Q01DX007 (ip), vehicle: saline) was 109 % of control, the T/C (dose: 80.0 mg/kg/injection, schedule: Q#A X014 (ip), vehicle: carboxymethylcellulose (CMC)) was 15 % of control and the T/C (dose: 106.6 mg/kg/injection, schedule: Q01DX007 (ip), vehicle: carboxymethylcellulose (CMC)) was 7 % of control. The T/C (dose: 128.0 mg/kg/injection, schedule: Q01DX007 (ip), vehicle: carboxymethylcellulose (CMC)) was 8 % of control, the T/C (dose: 160.0 mg/kg/injection, schedule: Q01DX007 (ip), vehicle: carboxymethylcellulose (CMC)) was 5 % of control and the T/C (dose: 160.0 mg/kg/injection, schedule: Q01DX007 (ip), vehicle: saline) was 56 % of control.
With `COC(=O)C1=CO[C@H](C)[C@@H]2CN3CCc4c([nH]c5ccccc45)[C@@H]3C[C@H]12` the T/C (dose: 12.5 mg/kg/injection, schedule: Q01DX007 (ip), vehicle: carboxymethylcellulose (CMC)) was 110 % of control, the T/C [4] was 83 % of control and the T/C [1] was 84 % of control. The T/C [5] was 98 % of control.
`CCCCN(CCCC)C(=O)c1[nH]cnc1N` was tested, and the T/C [5] was 55 % of control, the T/C (dose: 200.0 mg/kg/injection, schedule: Q01DX007 (ip), vehicle: carboxymethylcellulose (CMC)) was 58 % of control and the T/C (dose: 250.0 mg/kg/injection, schedule: Q01DX007 (ip), vehicle: carboxymethylcellulose (CMC)) was 87 % of control. For the same compound, the T/C (dose: 375.0 mg/kg/injection, schedule: Q01DX007 (ip), vehicle: carboxymethylcellulose (CMC)) was 57 % of control.
`NC(Cc1cc(I)c(Oc2ccc(O)c(I)c2)c(I)c1)C(=O)O` (stereo not given) was tested, and the T/C (dose: 0.1 micrograms/kg/injection, schedule: Q01DX007 (sc), vehicle: steriod suspending solution) was 103 % of control, the T/C (dose: 1.0 micrograms/kg/injection, schedule: Q01DX007 (sc), vehicle: steriod suspending solution) was 95 % of control and the T/C (dose: 10.0 micrograms/kg/injection, schedule: Q01DX007 (sc), vehicle: steriod suspending solution) was 156 % of control.
For `COS(C)(=O)=O`, the T/C [4] was 89 % of control and the T/C [1] was 66 % of control.
In the case of `Cc1cc(N=C2C=CC(=O)C=C2)c(C(C)C)cc1O`, the T/C (dose: 200.0 mg/kg/injection, schedule: Q01DX007 (ip), vehicle: other) is reported as 52 % of control, the T/C (dose: 300.0 mg/kg/injection, schedule: Q01DX007 (ip), vehicle: other) is reported as 61 % of control and the T/C (dose: 450.0 mg/kg/injection, schedule: Q01DX007 (ip), vehicle: other) is reported as 59 % of control. The T/C (dose: 600.0 mg/kg/injection, schedule: Q01DX007 (ip), vehicle: other) was 53 % of control.
In the case of `CCCCC(=O)OCC1OC(n2cnc3c(=S)nc[nH]c32)C(OC(=O)CCCC)C1OC(=O)CCCC` (stereo not given), the T/C [2] is reported as 69 % of control, the T/C [6] is reported as 34 % of control and the T/C (dose: 220.0 mg/kg/injection, schedule: Q01DX007 (ip), vehicle: carboxymethylcellulose (CMC)) is reported as 96 % of control. The T/C (dose: 335.0 mg/kg/injection, schedule: Q01DX007 (ip), vehicle: carboxymethylcellulose (CMC)) was 81 % of control and the T/C (dose: 750.0 mg/kg/injection, schedule: Q01DX007 (ip), vehicle: carboxymethylcellulose (CMC)) was 43 % of control.
With `CCCCCCCCCCCCOP(N)(=O)OCCCCCCCCCCCC` the T/C (dose: 20.0 mg/kg/injection, schedule: Q01DX007 (ip), vehicle: carboxymethylcellulose (CMC)) was 73 % of control, the T/C (dose: 55.0 mg/kg/injection, schedule: Q01DX007 (ip), vehicle: carboxymethylcellulose (CMC)) was 86 % of control and the T/C (dose: 55.5 mg/kg/injection, schedule: Q01DX007 (ip), vehicle: carboxymethylcellulose (CMC)) was 49 % of control. For the same compound, the T/C [3] was 103 % of control, the T/C (dose: 83.0 mg/kg/injection, schedule: Q01DX007 (ip), vehicle: carboxymethylcellulose (CMC)) was 71 % of control and the T/C (dose: 83.3 mg/kg/injection, schedule: Q01DX007 (ip), vehicle: carboxymethylcellulose (CMC)) was 54 % of control. For the same compound, the T/C (dose: 120.0 mg/kg/injection, schedule: Q01DX007 (ip), vehicle: carboxymethylcellulose (CMC)) was 54 % of control, the T/C [6] was 42 % of control and the T/C (dose: 187.5 mg/kg/injection, schedule: Q01DX007 (ip), vehicle: carboxymethylcellulose (CMC)) was 22 % of control.
With `Nc1ncnc2c1ccn2C1OC(CO)C(O)C1O` (stereo not given) the T/C (dose: 0.62 mg/kg/injection, schedule: Q#A X014 (ip), vehicle: carboxymethylcellulose (CMC)) was 90 % of control.
With `CC1CC(C)C(O)C(C(O)CC2CC(=O)NC(=O)C2)C1` (stereo not given) the T/C (dose: 40.0 mg/kg/injection, schedule: Q01DX007 (ip), vehicle: carboxymethylcellulose (CMC)) was 84 % of control, the T/C (dose: 62.0 mg/kg/injection, schedule: Q01DX007 (ip), vehicle: carboxymethylcellulose (CMC)) was 55 % of control and the T/C (dose: 93.0 mg/kg/injection, schedule: Q01DX007 (ip), vehicle: carboxymethylcellulose (CMC)) was 44 % of control.
In the case of `CC(=O)OCC(=O)C1(O)C(C)CC2C3C=C(C)C4=Cc5c(cnn5-c5ccccc5)CC4(C)C3C(O)CC21C` (stereo not given), the T/C (dose: 0.16 mg/kg/injection, schedule: Q01DX007 (sc), vehicle: steriod suspending solution) is reported as 115 % of control, the T/C (dose: 0.25 mg/kg/injection, schedule: Q01DX007 (sc), vehicle: steriod suspending solution) is reported as 39 % of control and 42 % of control and the T/C (dose: 8.0 mg/kg/injection, schedule: Q01DX007 (sc), vehicle: steriod suspending solution) is reported as 15 % of control.
In the case of `CC1=C(/C=C/C(C)=N/NC(N)=S)C(C)(C)CCC1`, the T/C (dose: 20.0 mg/kg/injection, schedule: Q01DX007 (ip), vehicle: other) is reported as 48 % of control and 66 % of control.
`O=C(Nc1ccc(N=Nc2ccc(S(=O)(=O)O)cc2)cc1)c1ccc(N=Nc2c(O)ccc3cc(S(=O)(=O)O)ccc23)cc1` was tested, and the T/C (dose: 12.5 mg/kg/injection, schedule: Q01DX007 (ip), vehicle: water) was 103 % of control, the T/C (dose: 25.0 mg/kg/injection, schedule: Q01DX007 (ip), vehicle: water) was 84 % of control and the T/C (dose: 50.0 mg/kg/injection, schedule: Q01DX007 (ip), vehicle: water) was 67 % of control.
